Measurements taken from patent publication US10035800B2 (AbbVie Inc., priority 2013, dated 2018).

Experiments:
BRD4 (BDI_K57-E168) = target: T1, BRD4 (BDI_K57-E168) (Homo sapiens, UniProt O60885); test: TR-FRET bromodomain binding assay, first bromodomain of BRD4; conditions: TR-FRET assay protocol G (compound 0.92 μM-15 pM); 100 nM probe
T1 construct: BD1: amino acids K57-E168; made in house
Description: (§1) Bromodomain Domain Binding Assay
(§2) A time-resolved fluorescence resonance energy transfer (TR-FRET) assay was used to determine the affinities of compounds of the Examples listed in Table 1 for each bromodomain of BRD4. His-tagged first (BD1: amino acids K57-E168) and second (BD2: amino acids […]) bromodomains of BRD4 were expressed and purified. An Alexa647-labeled BET-inhibitor was used as the fluorescent probe in the assay.
(§3) Compound dilution series were prepared in DMSO via an approximately 3-fold serial dilution from one of the following: […]
(§4) Assay method E: 0.47 mM to 7.8 nM […]
(§5) Assay method G: 0.047 mM to 0.78 nM
(§6) or 5-fold serial dilution from one of the following: […]
(§7) Assay method B: 2.5 mM-797 nM […]
(§8) For Assay methods B, E, and G: Compound dilutions were added directly into white, low-volume assay plates (Perkin Elmer Proxiplate 384 Plus#6008280) using a Labcyte Echo in conjunction with Labcyte Access and Thermo Multidrop CombinL robotics. Compounds were then suspended in eight microliters (μL) of assay buffer (20 mM Sodium Phosphate, pH 6.0, 50 mM NaCl, 1 mM Ethylenediaminetetraacetic acid disodium salt dihydrate, 0.01% Triton X-100, 1 mM DL-Dithiothreitol) containing His-tagged bromodomain, Europium-conjugated anti-His antibody (Invitrogen PV5596) and Alexa-647-conjugated probe.
(§9) The final concentration of 1× assay mixture for assay methods A, B, C, D, E, F, and G contains 2% DMSO, 8 nM His-tagged bromodomain, 1 nM Europium-conjugated anti-His-tag antibody and 100 nM or 30 nM probe (for BDI or BDII, respectively) and compound concentration in the range of: 50 μM-16 nM for method A, 49.02 μM-15.63 nM for method B, 25 μM-423 pM for method C, 10 μM-169 pM for method D, 9.19 μM-150 pM for method E, 5 μM-85 pM for method F, and 0.92 μM-15 pM for method G.
(§10) After a one-hour equilibration at room temperature, TR-FRET ratios were determined using an Envision multilabel plate reader (Ex 340, Em 495/520).
(§11) TR-FRET data were normalized to the means of 24 no-compound controls (“high”) and 8 controls containing 1 μM un-labeled probe (“low”). Percent inhibition was plotted as a function of compound concentration and the data were fit with the 4 parameter logistic equation to obtain IC50s. Inhibition constants (Ki) were calculated from the IC50s, probe Kd and probe concentration. Typical Z′ values were between 0.65 and 0.75. The minimum significant ratio was determined to evaluate assay reproducibility (Eastwood et al., (2006) J Biomol Screen, 11: 253-261). The MSR was determined to be 2.03 for BDI and 1.93 for BDII, and a moving MSR (last six run MSR overtime) for both BDI and BDII was typically <3.

BRD4 (BDII_E352-M457) = target: T2, BRD4 (BDII_E352-M457) (Homo sapiens, UniProt O60885); test: TR-FRET bromodomain binding assay, second bromodomain of BRD4; conditions: TR-FRET assay protocol G (compound 0.92 μM-15 pM); 30 nM probe
T2 construct: protocol; made in house
Description: as §1, §2, §3, §4, §5, §6, §7, §8, §9, §10, §11

Row | SMILES | Ki (BRD4 (BDI_K57-E168)) | Ki (BRD4 (BDII_E352-M457))
1 | CCc1ccc(CCNC(=O)N2Cc3c[nH]c4c(=O)n(C)cc(c34)-c3cc(CS(C)(=O)=O)ccc32)cc1 [Example 63, N-(4-ethylphenethyl)-10-methyl-7-((methylsulfonyl)methyl)-11-oxo-10,11-dihydro-1H-1,4,10-triazadibenzo[cd,f]azulene-4(3H)-carboxamide] | 82.2 nM | 73.6 nM
2 | COc1cccc(CNC(=O)N2Cc3c[nH]c4c(=O)n(C)cc(c34)-c3cc(CS(C)(=O)=O)ccc32)c1 [Example 65, N-(3-methoxybenzyl)-10-methyl-7-((methylsulfonyl)methyl)-11-oxo-10,11-dihydro-1H-1,4,10-triazadibenzo[cd,f]azulene-4(3H)-carboxamide] | > 238 nM | 238 nM
3 | Cn1cc2c3c(c[nH]c3c1=O)CN(C(=O)NCC1CCCCC1)c1ccc(CS(C)(=O)=O)cc1-2 [Example 67, N-(cyclohexylmethyl)-10-methyl-7-((methylsulfonyl)methyl)-11-oxo-10,11-dihydro-1H-1,4,10-triazadibenzo[cd,f]azulene-4(3H)-carboxamide] | > 238 nM | > 408 nM
4 | Cn1cc2c3c(c[nH]c3c1=O)CN(C(=O)Nc1ccc(F)c(C(F)(F)F)c1)c1ccc(CS(C)(=O)=O)cc1-2 [Example 71, N-(4-fluoro-3-(trifluoromethyl)phenyl)-10-methyl-7-((methylsulfonyl)methyl)-11-oxo-10,11-dihydro-1H-1,4,10-triazadibenzo[cd,f]azulene-4(3H)-carboxamide] | 30.4 nM | 26.7 nM
5 | CCOC(=O)C1CCC(CNC(=O)N2Cc3c[nH]c4c(=O)n(C)cc(c34)-c3cc(CS(C)(=O)=O)ccc32)CC1 (centres unmarked) [Example 72, ethyl 4-((10-methyl-7-((methylsulfonyl)methyl)-11-oxo-3,4,10,11-tetrahydro-1H-1,4,10-triazadibenzo[cd,f]azulene-4-carboxamido)methyl)cyclohexanecarboxylate] | 26.2 nM | 37 nM
6 | Cc1ccc(S(=O)(=O)N2Cc3c[nH]c4c(=O)n(C)cc(c34)-c3cc(CS(C)(=O)=O)ccc32)cc1 [Example 74, 10-methyl-7-((methylsulfonyl)methyl)-4-tosyl-3,4-dihydro-1H-1,4,10-triazadibenzo[cd,f]azulen-11(10H)-one] | > 238 nM | 369 nM
7 | COc1ccc(S(=O)(=O)N2Cc3c[nH]c4c(=O)n(C)cc(c34)-c3cc(CS(C)(=O)=O)ccc32)cc1 [Example 76, 4-((4-methoxyphenyl)sulfonyl)-10-methyl-7-((methylsulfonyl)methyl)-3,4-dihydro-1H-1,4,10-triazadibenzo[cd,f]azulen-11(10H)-one] | > 238 nM | > 408 nM
8 | Cn1cc2c3c(c[nH]c3c1=O)CN(S(=O)(=O)c1ccccc1)c1ccc(CS(C)(=O)=O)cc1-2 [Example 77, 10-methyl-7-((methylsulfonyl)methyl)-4-(phenylsulfonyl)-3,4-dihydro-1H-1,4,10-triazadibenzo[cd,f]azulen-11(10H)-one] | > 238 nM | 275 nM
9 | COc1ccccc1S(=O)(=O)N1Cc2c[nH]c3c(=O)n(C)cc(c23)-c2cc(CS(C)(=O)=O)ccc21 [Example 78, 4-((2-methoxyphenyl)sulfonyl)-10-methyl-7-((methylsulfonyl)methyl)-3,4-dihydro-1H-1,4,10-triazadibenzo[cd,f]azulen-11(10H)-one] | 216 nM | 126 nM
10 | Cn1cc2c3c(c[nH]c3c1=O)CN(S(=O)(=O)c1ccc(Oc3ccccc3)cc1)c1ccc(CS(C)(=O)=O)cc1-2 [Example 79, 10-methyl-7-((methylsulfonyl)methyl)-4-((4-phenoxyphenyl)sulfonyl)-3,4-dihydro-1H-1,4,10-triazadibenzo[cd,f]azulen-11(10H)-one] | > 238 nM | > 408 nM
11 | Cn1cc2c3c(c[nH]c3c1=O)CN(S(=O)(=O)c1ccc(F)cc1)c1ccc(CS(C)(=O)=O)cc1-2 [Example 80, 4-((4-fluorophenyl)sulfonyl)-10-methyl-7-((methylsulfonyl)methyl)-3,4-dihydro-1H-1,4,10-triazadibenzo[cd,f]azulen-11(10H)-one] | > 238 nM | > 408 nM
12 | Cn1cc2c3c(c[nH]c3c1=O)CN(C(=O)c1ccc3ccccc3c1)c1ccc(CS(C)(=O)=O)cc1-2 [Example 81, 4-(2-naphthoyl)-10-methyl-7-((methylsulfonyl)methyl)-3,4-dihydro-1H-1,4,10-triazadibenzo[cd,f]azulen-11(10H)-one] | 51.7 nM | 32.3 nM
13 | Cn1cc2c3c(c[nH]c3c1=O)CN(c1ccc(F)cc1F)c1ncncc1-2 [Example 83, 4-(2,4-difluorophenyl)-10-methyl-3,4-dihydro-1H-1,4,5,7,10-pentaazadibenzo[cd,f]azulen-11(10H)-one] | > 238 nM | > 408 nM
14 | COCCOC(=O)N1Cc2c[nH]c3c(=O)n(C)cc(c23)-c2cc(CS(C)(=O)=O)ccc21 [Example 86, 2-methoxyethyl 10-methyl-7-((methylsulfonyl)methyl)-11-oxo-10,11-dihydro-1H-1,4,10-triazadibenzo[cd,f]azulene-4(3H)-carboxylate] | 10.3 nM | 13.9 nM
15 | CCCCCOC(=O)N1Cc2c[nH]c3c(=O)n(C)cc(c23)-c2cc(CS(C)(=O)=O)ccc21 [Example 88, pentyl 10-methyl-7-((methylsulfonyl)methyl)-11-oxo-10,11-dihydro-1H-1,4,10-triazadibenzo[cd,f]azulene-4(3H)-carboxylate] | 3.46 nM | 1.76 nM
16 | Cn1cc2c3c(c[nH]c3c1=O)CN(C(=O)OCCCCCl)c1ccc(CS(C)(=O)=O)cc1-2 [Example 89, 4-chlorobutyl 10-methyl-7-((methylsulfonyl)methyl)-11-oxo-10,11-dihydro-1H-1,4,10-triazadibenzo[cd,f]azulene-4(3H)-carboxylate] | 5.77 nM | 4.53 nM
17 | Cn1cc2c3c(c[nH]c3c1=O)CN(C(=O)OCC(C)(C)C)c1ccc(CS(C)(=O)=O)cc1-2 [Example 92, neopentyl 10-methyl-7-((methylsulfonyl)methyl)-11-oxo-10,11-dihydro-1H-1,4,10-triazadibenzo[cd,f]azulene-4(3H)-carboxylate] | 3.74 nM | 5.58 nM
18 | Cn1cc2c3c(c[nH]c3c1=O)CN(C(=O)OCCF)c1ccc(CS(C)(=O)=O)cc1-2 [Example 96, 2-fluoroethyl 10-methyl-7-((methylsulfonyl)methyl)-11-oxo-10,11-dihydro-1H-1,4,10-triazadibenzo[cd,f]azulene-4(3H)-carboxylate] | 3.46 nM | 1.61 nM
19 | COc1ccc(OC(=O)N2Cc3c[nH]c4c(=O)n(C)cc(c34)-c3cc(CS(C)(=O)=O)ccc32)cc1 [Example 97, 4-methoxyphenyl 10-methyl-7-((methylsulfonyl)methyl)-11-oxo-10,11-dihydro-1H-1,4,10-triazadibenzo[cd,f]azulene-4(3H)-carboxylate] | 3.21 nM | 1.35 nM
20 | Cn1cc2c3c(c[nH]c3c1=O)CN(C(=O)c1ccc(F)cc1)c1ccc(CS(C)(=O)=O)cc1-2 [Example 100, 4-(4-fluorobenzoyl)-10-methyl-7-((methylsulfonyl)methyl)-3,4-dihydro-1H-1,4,10-triazadibenzo[cd,f]azulen-11(10H)-one] | 29.8 nM | 7.41 nM
21 | COCCC(=O)N1Cc2c[nH]c3c(=O)n(C)cc(c23)-c2cc(CS(C)(=O)=O)ccc21 [Example 101, 4-(3-methoxypropanoyl)-10-methyl-7-((methylsulfonyl)methyl)-3,4-dihydro-1H-1,4,10-triazadibenzo[cd,f]azulen-11(10H)-one] | 4.83 nM | 2.77 nM
22 | Cn1cc2c3c(c[nH]c3c1=O)CN(C(=O)CCC1CCCC1)c1ccc(CS(C)(=O)=O)cc1-2 [Example 103, 4-(3-cyclopentylpropanoyl)-10-methyl-7-((methylsulfonyl)methyl)-3,4-dihydro-1H-1,4,10-triazadibenzo[cd,f]azulen-11(10H)-one] | 8.12 nM | 4.71 nM
